The results in this text go back to PubChem BioAssay AID248 (DTP/NCI, 2004).

For this assay, the system named is L1210 leukemia ip in BDF1 mice, survival T/C. The assay is described as follows: NCI In Vivo Anticancer Drug Screen. Data for tumor model L1210 Leukemia (intraperitoneal) in B6D2F1 (BDF1) mice. The conditions noted are these: endpoint: mean survival time, higher = longer survival. The gist of the method:
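In this screen, tumor-bearing mice given compound are compared to those given vehicle, and their survival values are reported as a treated-to-control quotient.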

Setting [1] is: dose: 100.0 mg/kg/injection, schedule: Q04DX003 (ip), vehicle: saline.
Setting [2] is: dose: 200.0 mg/kg/injection, schedule: Q01DX009 (ip), vehicle: saline.
The mark [3] stands for this setting: dose: 200.0 mg/kg/injection, schedule: Q04DX003 (ip), vehicle: saline.
[4] abbreviates: dose: 400.0 mg/kg/injection, schedule: Q01DX001 (ip), vehicle: Klucel (hydroxypropylcellulose) (HPC).
[5] abbreviates: dose: 400.0 mg/kg/injection, schedule: Q04DX003 (ip), vehicle: saline.
The mark [6] stands for this setting: dose: 100.0 mg/kg/injection, schedule: Q01DX001 (ip), vehicle: other.
[7] abbreviates: dose: 100.0 mg/kg/injection, schedule: Q04DX003 (ip), vehicle: other.
The mark [8] stands for this setting: dose: 100.0 mg/kg/injection, schedule: Q04DX003 (ip), vehicle: saline with Tween-80.
Where [9] appears, read: dose: 200.0 mg/kg/injection, schedule: Q04DX003 (ip), vehicle: saline with Tween-80.
The mark [10] stands for this setting: dose: 400.0 mg/kg/injection, schedule: Q04DX003 (ip), vehicle: saline with Tween-80.
Setting [11] is: dose: 100.0 mg/kg/injection, schedule: Q01DX001 (ip), vehicle: carboxymethylcellulose (CMC).
The mark [12] stands for this setting: dose: 100.0 mg/kg/injection, schedule: Q01DX009 (ip), vehicle: Klucel (hydroxypropylcellulose) (HPC).
Setting [13] is: dose: 200.0 mg/kg/injection, schedule: Q01DX001 (ip), vehicle: carboxymethylcellulose (CMC).
The mark [14] stands for this setting: dose: 200.0 mg/kg/injection, schedule: Q01DX009 (ip), vehicle: Klucel (hydroxypropylcellulose) (HPC).
Where [15] appears, read: dose: 400.0 mg/kg/injection, schedule: Q01DX001 (ip), vehicle: carboxymethylcellulose (CMC).
The mark [16] stands for this setting: dose: 400.0 mg/kg/injection, schedule: Q01DX009 (ip), vehicle: Klucel (hydroxypropylcellulose) (HPC).
Where [17] appears, read: dose: 100.0 mg/kg/injection, schedule: Q01DX001 (ip), vehicle: saline.
Setting [18] is: dose: 200.0 mg/kg/injection, schedule: Q01DX001 (ip), vehicle: saline.
The mark [19] stands for this setting: dose: 400.0 mg/kg/injection, schedule: Q01DX001 (ip), vehicle: saline.

Toxic doses and inconclusive results are not listed.

Consider `O=C1CC2CC(=O)CC2C1` (centres undefined), for which the T/C runs as follows: (dose: 100.0 mg/kg/injection, schedule: Q01DX001 (ip), vehicle: Klucel (hydroxypropylcellulose) (HPC)) 104 % of control; under setting [1], 105 % of control; (dose: 200.0 mg/kg/injection, schedule: Q01DX001 (ip), vehicle: Klucel (hydroxypropylcellulose) (HPC)) 97 % of control; under setting [2], 90 % of control; under setting [3], 105 % of control; under setting [4], 98 % of control. In addition, the T/C under setting [5] was 94 % of control.
As for `CC1CC(C)(C)NC(=O)O1` (centres undefined), the T/C (dose: 25.0 mg/kg/injection, schedule: Q01DX009 (ip), vehicle: other) is 93 % of control; the T/C (dose: 25.0 mg/kg/injection, schedule: Q04DX003 (ip), vehicle: other) was 90 % of control; the T/C (dose: 50.0 mg/kg/injection, schedule: Q01DX009 (ip), vehicle: other) was 92 % of control; the T/C (dose: 50.0 mg/kg/injection, schedule: Q04DX003 (ip), vehicle: other) is 89 % of control; the T/C under setting [6] was 103 % of control; the T/C (dose: 100.0 mg/kg/injection, schedule: Q01DX009 (ip), vehicle: other) is 92 % of control. The T/C under setting [7] is 90 % of control.
`O=C(O)CNC(=O)c1ccc([N+](=O)[O-])cc1`: the T/C is, setting by setting: (dose: 100.0 mg/kg/injection, schedule: Q01DX009 (ip), vehicle: saline with Tween-80) 92 % of control; under setting [8], 103 % of control; (dose: 200.0 mg/kg/injection, schedule: Q01DX009 (ip), vehicle: saline with Tween-80) 92 % of control; under setting [9], 98 % of control; (dose: 400.0 mg/kg/injection, schedule: Q01DX009 (ip), vehicle: saline with Tween-80) 92 % of control; under setting [10], 98 % of control.
Take `CSc1ncc2ncn(C3OC(CO)C(O)C3O)c2n1` (centres undefined): the T/C under setting [11] is 108 % of control; the T/C under setting [12] was 91 % of control; the T/C under setting [7] was 110 % of control; the T/C under setting [13] was 102 % of control; the T/C under setting [14] is 98 % of control; the T/C (dose: 200.0 mg/kg/injection, schedule: Q04DX003 (ip), vehicle: other) was 95 % of control. The T/C under setting [15] was 98 % of control; the T/C under setting [16] was 89 % of control; the T/C (dose: 400.0 mg/kg/injection, schedule: Q04DX003 (ip), vehicle: other) is 100 % of control.
Turning to `O=[N+]([O-])c1cc2c(c([N+](=O)[O-])c1)Nc1cc(Cl)ccc1O2`, the T/C is, setting by setting: under setting [12], 95 % of control; under setting [14], 96 % of control; under setting [16], 96 % of control.
In the case of `CC(=O)OCC(=O)[C@@]1(O)CC[C@H]2[C@@H]3CCC4=CC(=O)C=C[C@]4(C)[C@@]3(F)[C@@H](O)C[C@@]21C`, the T/C was 117 % of control (dose: 12.5 mg/kg/injection, schedule: Q01DX009 (ip), vehicle: saline with Tween-80); 101 % of control (dose: 25.0 mg/kg/injection, schedule: Q01DX009 (ip), vehicle: saline with Tween-80); 96 % of control (dose: 50.0 mg/kg/injection, schedule: Q01DX009 (ip), vehicle: saline with Tween-80).
As to `CNC(=O)c1ccc[n+](CC(=O)Nc2ccccc2)c1`, the T/C runs as follows: under setting [1], 92 % of control; under setting [3], 102 % of control.
Turning to `O=C(Nc1nccs1)C(Cl)Cl`, the T/C by setting is: under setting [11], 103 % of control; (dose: 177.0 mg/kg/injection, schedule: Q01DX001 (ip), vehicle: Klucel (hydroxypropylcellulose) (HPC)) 105 % of control; under setting [13], 118 % of control; (dose: 266.0 mg/kg/injection, schedule: Q01DX001 (ip), vehicle: Klucel (hydroxypropylcellulose) (HPC)) 107 % of control; under setting [4], 105 % of control; under setting [15], 249 % of control. In addition, the T/C (dose: 600.0 mg/kg/injection, schedule: Q01DX001 (ip), vehicle: Klucel (hydroxypropylcellulose) (HPC)) is 105 % of control.
For `CC(C)=CCCC(=O)Oc1ccccc1C(=O)O`, the T/C is 99 % of control under setting [1], 91 % of control under setting [3] and 93 % of control under setting [5].
For the compound `CC(=O)c1ccccc1N1CCCCC1`, the T/C by setting is: (dose: 100.0 mg/kg/injection, schedule: Q04DX002 (ip), vehicle: saline) 100 % of control; (dose: 200.0 mg/kg/injection, schedule: Q04DX002 (ip), vehicle: saline) 89 % of control.
`CCOC(=O)CNC(=O)CO`: the T/C is 101 % of control under setting [6]; 95 % of control (dose: 200.0 mg/kg/injection, schedule: Q01DX001 (ip), vehicle: other); 101 % of control (dose: 400.0 mg/kg/injection, schedule: Q01DX001 (ip), vehicle: other).
As to `O=C(Nc1ccccc1-c1ccc([N+](=O)[O-])cc1)c1ccc(-c2ccccc2)cc1`, the T/C under setting [5] was 92 % of control.
With `CC(C)(O)C/C=C/c1ccccc1`, the T/C under setting [8] was 103 % of control, the T/C under setting [9] is 103 % of control and the T/C under setting [10] was 106 % of control.
Regarding `CC(C)(C)NC(=O)Nc1ccc(Cl)c(Cl)c1`, the T/C under setting [17] is 97 % of control, the T/C under setting [18] is 100 % of control and the T/C under setting [19] is 95 % of control.
For `O=C1NC(=O)C(c2ccc3c(c2)OCO3)N1` (centres undefined), the T/C is 104 % of control under setting [8], 102 % of control under setting [9] and 101 % of control under setting [10].
For `CCCCOC(c1ccc2c(c1)OCO2)C(C)Br` (centres undefined), the T/C reads like this: under setting [8], 94 % of control; under setting [9], 94 % of control; under setting [10], 97 % of control.
Consider `Nc1ncnc2c1ncn2C1OC(CO)C(NC(=O)C(CCCCNC(=O)OCc2ccccc2)NC(=O)OCc2ccccc2)C1O` (centres undefined), for which the T/C is, setting by setting: under setting [17], 102 % of control; under setting [18], 100 % of control; under setting [19], 100 % of control.
Consider `COc1ccc(Cc2ccc(OC)c(OC)c2)cc1OC`, for which the T/C is, setting by setting: (dose: 200.0 mg/kg/injection, schedule: Q04DX003 (ip), vehicle: acetone) 124 % of control; (dose: 400.0 mg/kg/injection, schedule: Q04DX003 (ip), vehicle: acetone) 100 % of control.
On to `O=[As](O)(c1cccc(Cl)c1)c1cccc(Cl)c1`, for which, for the setting “dose: 75.0 mg/kg/injection, schedule: Q01DX001 (ip), vehicle: saline”, the T/C is 105 % of control.
As to `CC(=O)CN`, the T/C was 111 % of control (dose: 100.0 mg/kg/injection, schedule: Q01DX009 (ip), vehicle: saline); 104 % of control under setting [2]; 108 % of control (dose: 400.0 mg/kg/injection, schedule: Q01DX009 (ip), vehicle: saline).
